± gives the uncertainty stated by the source.
Assay: xn = mol fraction of the nth substance listed
Settings: 298.15 K, 101.3 kPa

SMILES: CCCC[n+]1cccc(C)c1.O=S(=O)([N-]S(=O)(=O)C(F)(F)F)C(F)(F)F + CCO
- electrical conductivity (x2 = 0): 0.273 ± 0.005 S/m
- electrical conductivity (x2 = 0.4364): 0.642 ± 0.013 S/m
- electrical conductivity (x2 = 0.6597): 0.93 ± 0.019 S/m
- electrical conductivity (x2 = 0.8246): 1.07 ± 0.021 S/m
